Results from US20140348861A1, “SYNTHETIC PEPTIDES AND RANDOM COPOLYMERS FOR THE TREATMENT OF AUTOIMMUNE DISORDERS” (NATIONAL INSTITUTE OF IMMUNOLOGY, priority 2011, published 2014).
Starred links: 1 amine or outer side, 2 acyl side, 3 side chain; linkers in the order of their positions; H or OH if unused. Non-standard residues stand in square brackets, D forms with d. Primed or numbered codes have the meaning given here. No end group written: not given here. Kβ = L-β-lysine, O=C(C[C@H](CCCN[*:3])N[*:1])[*:2]; β3hY = N[C@H](CC(=O)O)Cc1ccc(O)cc1; Kβ″ = beta-amino acid residue (K); β3hK = NCCCC[C@H](N)CC(=O)O; β3hA = C[C@H](N)CC(=O)O; Yβ = β-tyrosine

System: SJL/J mice exhibiting MBP (85-109) induced relapsing remitting form of EAE
Test: Therapeutic activity in MBP (85-109) induced relapsing remitting EAE, treatment from day 11
Format: in vivo
Conditions: SJL/J mice, RR EAE; for Therapeutic activity in comparison to GA (Therapeutic activity (Analogs) − Therapeutic activity GA) / Therapeutic activity in comparison to J5 (Therapeutic activity (Analogs) − Therapeutic activity (J5)): 0.1 mg daily for two weeks; for Therapeutic activity = % reduction in cumulative clinical disability score: synthetic peptides, 0.1 mg daily for two weeks from day 11 post-immunization
Description: SJL/J and C57BL6/J mice procured from Jackson's laboratory (Bar Harbor, Me.) were maintained under standard housing conditions in the central animal facility at NII as per institutional ethical committee guidelines. 8-10 week old female SJL/J mice were used throughout the study.
To induce RR EAE or chronic progressive EAE, SJL/J or C57BL6/J mice were immunized subcutaneously with 0.2 mg of MBP (85-109) or 0.1 mg MOG (35-55) emulsified in CFA and 200 ng of pertussis toxin was injected intraperitoneally on day 0 and day 2 so as to permeablize the blood brain barrier. All the animals in various experimental groups were scored daily for clinical disability on a scale of 0-6 where 0=no neurological symptoms, 1=limp tail, 2=weakness of hind limbs or ataxia, 3=incomplete paralysis of hind limbs, 4=complete paralysis of hind limbs, 5=complete paralysis of all four limbs, 6=dead. Diseased animals were provided easy access to food and water.
GA, J91, J92, S101, S102, S103 for two weeks and scored for clinical disability.

Substance | Therapeutic activity in comparison to GA (Therapeutic activity (Analogs) − Therapeutic activity GA) | Therapeutic activity in comparison to J5 (Therapeutic activity (Analogs) − Therapeutic activity (J5)) | Therapeutic activity = % reduction in cumulative clinical disability score
VEAYK (Peptide analog) [Analog J5c, reference compound] | −9.947% | −13.9037% | 21.39%
KVEAYβKβ (KVEA[Yβ][Kβ″]) [Analog S67] | −12.9412% | −16.8984% | 18.4%
EKPKVEAYKAAAβ^3Aβ^3Pβ^3Aβ^3 [Analog S4] | 4.492% | 0.5348% | 35.83%
KVEAYKAAAAβ^3 (KVEAYKAAA[β3hA]) [Analog S17] | −2.032% | −5.989% | 29.3%
EKPKVEAYKβAβAβAβAβPAβ (EKPKVEAY[Kβ]XXXXPX; not fully specified (residues 10, 11, 12, 13, 15); printed as EKPKVEAYKβAβAβAβAβPAβ) [Analog S46] | 21.93% | 17.97% | 53.26%
VEAβYβKβ [Analog S75] | −5.5615% | −9.519% | 25.7754%
EβKβPKβVβEβAβYβKβAβAβAβAβPAβ [Analog S53] | 0.2139% | −3.743% | 31.5508%
KVEβAβYβKβ [Analog S69] | −8.877% | −12.8342% | 22.46%
Kβ^3Vβ^3Eβ^3AβYβ^3Kβ^3AβAβAβAβ^3 [Analog S81] | 31.12% | 27.17% | 62.46%
EKPKVEβAβYβKβAβAβAβAβPAβ [Analog S49] | 18.93% | 14.97% | 50.27%
EβKβPKβ^3Vβ^3Eβ^3AβYβ^3Kβ^3AβAβAβ^3Aβ^3PAβ [Analog S80] | 30.7% | 26.74% | 62.03%
EKPKVEAYKAAAAβ^3Pβ^3Aβ^3 [Analog S3] | 5.027% | 1.07% | 36.36%
KVEAYKAAAβ^3Aβ^3 (KVEAYKAA[β3hA][β3hA]) [Analog S18] | −3.957% | −7.914% | 27.38%
EKPKVβ^3Eβ^3Aβ^3Yβ^3Kβ^3Aβ^3Aβ^3Aβ^3Aβ^3Pβ^3Aβ^3 [Analog S11] | 23.53% | 19.57% | 54.87%
VβEβAβYβKβ [Analog S77] | −18.8235% | −22.7808% | 12.51%
EKPKVEAYKAAAAβPAβ [Analog S42] | 3.316% | −0.6417% | 34.65%
Kβ^3Vβ^3EAYβ^3Kβ^3 [Analog S34] | 25.03% | 21.07% | 56.36%
KVEAYKβ^3 (KVEAY[β3hK]) [Analog S28] | −7.38% | −11.3369% | 23.96%

Substance | Therapeutic activity in comparison to GA (Therapeutic activity (Analogs) − Therapeutic activity GA) | Therapeutic activity in comparison to J5 (Therapeutic activity (Analogs) − Therapeutic activity (J5)) | Therapeutic activity = % reduction in cumulative clinical disability score
KVβEβAβYβKβAβAβAβAβ [Analog S63] | −9.305% | −13.262% | 22.03%
VEAYKβ^3 (VEAY[β3hK]) [Analog S35] | −6.952% | −10.9091% | 24.39%
KβVβEβAβYβKβ [Analog S71] | −14.9519% | −18.9091% | 16.39%
EKPKVEβ^3Aβ^3Yβ^3Kβ^3Aβ^3Aβ^3Aβ^3Aβ^3Pβ^3Aβ^3 [Analog S10] | 19.89% | 15.94% | 51.23%
VEβAβYβKβ [Analog S76] | −7.914% | −11.8717% | 23.42%
EKβ^3Pβ^3Kβ^3Vβ^3Eβ^3Aβ^3Yβ^3Kβ^3Aβ^3Aβ^3Aβ^3Aβ^3Pβ^3Aβ^3 [Analog S14] | 27.91% | 23.96% | 59.25%
VEAYβ^3Kβ^3 (VEA[β3hY][β3hK]) [Analog S36] | −2.46% | −6.417% | 28.88%
KVβ^3Eβ^3Aβ^3Yβ^3Kβ^3Aβ^3Aβ^3Aβ^3Aβ^3 [Analog S25] | 22.25% | 18.29% | 53.58%
KVEAYKAAβ^3Aβ^3Aβ^3 (KVEAYKA[β3hA][β3hA][β3hA]) [Analog S19] | 5.989% | 2.032% | 37.3262%
EKPKVEAYβ^3Kβ^3Aβ^3Aβ^3Aβ^3Aβ^3Pβ^3Aβ^3 [Analog S7] | 22.46% | 18.5% | 53.8%
KVEAYKβAβAβAβAβ [Analog S59] | 12.94% | 8.984% | 44.28%
VEAβ^3Yβ^3Kβ^3 [Analog S37] | −0.9626% | −4.92% | 30.37%
EKPβ^3Kβ^3Vβ^3Eβ^3Aβ^3Yβ^3Kβ^3Aβ^3Aβ^3Aβ^3Aβ^3Pβ^3Aβ^3 [Analog S13] | 24.71% | 20.75% | 56.04%
EβKβPKβVβEAYβKβAβAβAβAβPAβ [Analog S54] | −1.6E−06% | −3.957% | 31.3369%
KβVβEβAβYβKβAβAβAβAβ [Analog S64] | −7.38% | −11.3369% | 23.96%
KVEAβYβKβ [Analog S68] | −5.134% | −9.091% | 26.2%
KβVβEAYβKβ [Analog S72] | −15.9358% | −19.8931% | 15.4%
KβVβEAYβKβAβAβAβAβ [Analog S65] | −5.989% | −9.947% | 25.35%
